Like-named read-outs stand apart in the source and are kept apart here.
Columns and labels:
MCP-1 [1] = assay: Effect on LPS-induced MCP-1 plasma levels in mice (Example 1, ELISA); details: calculated versus vehicle group; same doses and schedule as E1
Procedure: MCP-1 plasma levels were measured by commercially available ELISA kit. Drugs were intraperitoneally (ip) administered 30 minutes before LPS injection (50 μg/mouse, ip) to groups of eight mice. […] The percent reduction was calculated versus the vehicle group.

[2] = Effect on proteinuria in human: Urinary Albumin Excretion (UAE) in Type 2 diabetes patients (Example 2); type: in vivo; details: 8 weeks, bindarit 600 mg twice a day, irbesartan 300 mg once a day
Source text: Irbesartan is a well known angiotensin receptor blockers (ARB). The treatment lasted 8 weeks.

MCP-1 [3] = details: calculated versus vehicle group; same doses and schedule as E6
Procedure: MCP-1 plasma levels were measured by commercially available ELISA kit.
Drugs were intraperitoneally (ip) administered 30 minutes before LPS injection (50 μg/mouse, ip) to groups of six mice. At 3 hours following
LPS injection, mice were anesthetized and blood was withdrawn by intracardiac puncture in order to obtain plasma (heparinized samples) to be used to measure MCP-1 levels.
The percent reduction was calculated versus the vehicle group.

Row | Compound | MCP-1 plasma level % reduction (MCP-1 [1]) | further results
1 | CCOC(=O)[C@H](CCc1ccccc1)N[C@@H](C)C(=O)N1[C@H](C(=O)O)C[C@@H]2CCC[C@@H]21 [Ramipril, ramipril] | 30% | –
2 | CCCCc1nc(Cl)c(CO)n1Cc1ccc(-c2ccccc2-c2nn[nH]n2)cc1 [Losartan, losartan] | 13% | –
3 | CCCCC1=NC2(CCCC2)C(=O)N1Cc1ccc(-c2ccccc2-c2nnn[nH]2)cc1 [Placebo + Irbesartan, irbesartan] | – | Patient percentage with a UAE reduction equal to or higher than 25% with respect to basal value [2]: 27.5%
4 | CCC(C)(C)C(=O)O[C@H]1C[C@@H](C)C=C2C=C[C@H](C)[C@H](CC[C@@H]3C[C@@H](O)CC(=O)O3)[C@H]21 [Simvastatin, simvastatin] | 7% | –
5 | COc1ccc(CCN(C)CCCC(C#N)(c2ccc(OC)c(OC)c2)C(C)C)cc1OC (centres unmarked) [Verapamil, verapamil] | – | MCP-1 plasma level % reduction (MCP-1 [3]): 26%

Source: patent publication US9492542B2, “Pharmaceutical composition for the treatment of MCP-1 mediated inflammatory diseases” (priority 2009, dated 2016)
